The supplement of paper PMC9663587

Columns and labels:
[1] = compound: CCOc1cc2ncc(C#N)c(Nc3ccc(OCc4ccccn4)c(Cl)c3)c2cc1NC(=O)/C=C/CN(C)C [Neratinib/HKI272]; assay: GR value, 72 h; higher = faster growth (1 = untreated, <0 = killing);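 also: breast cancer and non-malignant breast epithelial lines, nine half-log doses, viable cells counted by Hoechst and LIVE/DEAD dye imaging versus time-zero plates and DMSO controls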
[2] = compound: CCc1cnn2c(NCc3ccc[n+]([O-])c3)cc(N3CCCC[C@H]3CCO)nc12; assay: as above
[3] = compound: CN(C)C/C=C/C(=O)Nc1ccc(C(=O)Nc2cccc(Nc3ncc(Cl)c(-c4c[nH]c5ccccc45)n3)c2)cc1 [THZ1]; assay: as above
[4] = compound: CC(=O)c1c(C)c2cnc(Nc3ccc(N4CCN(CCOCCOCCOCCNC(=O)COc5cccc6c5C(=O)N(C5CCC(=O)NC5=O)C6=O)CC4)cn3)nc2n(C2CCCC2)c1=O [BSJ-03-123]; assay: as above
[5] = compound: CC(=O)c1c(C)c2cnc(Nc3ccc(N4CCNCC4)cn3)nc2n(C2CCCC2)c1=O; assay: as above
[6] = compound: CCN1CCN(Cc2ccc(Nc3ncc(F)c(-c4cc(F)c5nc(C)n(C(C)C)c5c4)n3)nc2)CC1; assay: as above
[7] = compound: T1, CN1CC[C@H](c2c(O)cc(O)c3c(=O)cc(-c4ccccc4Cl)oc23)[C@H](O)C1 [Flavopiridol]; assay: as above
[8] = compound: CN(C)C/C=C/C(=O)Nc1ccc(C(=O)N2CCC[C@@H](Nc3ncc(Cl)c(-c4c[nH]c5ccccc45)n3)C2)cc1 [THZ531]; assay: as above
[9] = compound: C=CC(=O)Nc1ccc(C(=O)Nc2[nH]nc3c2CN(C(=O)N[C@H](CN(C)C)c2ccccc2)C3(C)C)cc1 [YKL-5-124]; assay: as above
[10] = compound: CN(C)C(=O)c1cc2cnc(Nc3ccc(N4CCNCC4)cn3)nc2n1C1CCCC1 [LEE011/Ribociclib]; assay: as above
[11] = compound: CCN1CCN(Cc2ccc(Nc3ncc(F)c(-c4cc(F)c5nc(C)n(C(C)C)c5c4)n3)nc2)CC1; assay: increase in dead-cell fraction, 72 h; higher = more death;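 also: breast cancer cell lines in 384-well plates, stained with Hoechst plus LIVE/DEAD far red dye and imaged, cells above an LDR intensity threshold counted dead, Hoechst-negative corpses included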
[12] = compound: T1, Flavopiridol; assay: as above

## SUM229PE
[1]; 0.0003162 µM
  GR value: 1.03 GR
[1]; 0.001 µM
  GR value: 0.967 GR
[1]; 0.003162 µM
  GR value: 0.972 GR
[1]; 0.01 µM
  GR value: 0.951 GR
[1]; 0.03162 µM
  GR value: 0.952 GR
[1]; 0.1 µM
  GR value: 0.751 GR
[1]; 0.3162 µM
  GR value: 0.562 GR
[1]; 1 µM
  GR value: 0.386 GR
[1]; 3.162 µM
  GR value: 0.203 GR
[2]; 0.0001 µM
  GR value: 1.04 GR
[2]; 0.0003162 µM
  GR value: 1.02 GR
[2]; 0.001 µM
  GR value: 0.991 GR
[2]; 0.003162 µM
  GR value: 1.01 GR
[2]; 0.01 µM
  GR value: 0.796 GR
[2]; 0.03162 µM
  GR value: -0.122 GR
[2]; 0.1 µM
  GR value: -0.194 GR
[2]; 0.3162 µM
  GR value: -0.203 GR
[2]; 1 µM
  GR value: -0.209 GR
[3]; 0.0001 µM
  GR value: 1 GR
[3]; 0.0003162 µM
  GR value: 1 GR
[3]; 0.001 µM
  GR value: 1.04 GR
[3]; 0.003162 µM
  GR value: 0.953 GR
[3]; 0.01 µM
  GR value: 0.65 GR
[3]; 0.03162 µM
  GR value: 0.283 GR
[3]; 0.1 µM
  GR value: -0.0615 GR
[3]; 0.3162 µM
  GR value: -0.216 GR
[3]; 1 µM
  GR value: -0.297 GR
[4]; 0.001 µM
  GR value: 0.887 GR
[4]; 0.003162 µM
  GR value: 0.881 GR
[4]; 0.01 µM
  GR value: 0.87 GR
[4]; 0.03162 µM
  GR value: 0.857 GR
[4]; 0.1 µM
  GR value: 0.758 GR
[4]; 0.3162 µM
  GR value: 0.785 GR
[4]; 1 µM
  GR value: 0.568 GR
[4]; 3.162 µM
  GR value: 0.497 GR
[4]; 10 µM
  GR value: 0.114 GR
[5]; 0.0003162 µM
  GR value: 0.988 GR
[5]; 0.001 µM
  GR value: 0.983 GR
[5]; 0.003162 µM
  GR value: 0.933 GR
[5]; 0.01 µM
  GR value: 0.906 GR
[5]; 0.03162 µM
  GR value: 0.848 GR
[5]; 0.1 µM
  GR value: 0.711 GR
[5]; 0.3162 µM
  GR value: 0.563 GR
[5]; 1 µM
  GR value: 0.536 GR
[5]; 3.162 µM
  GR value: 0.392 GR
[6]; 0.001 µM
  GR value: 0.924 GR
[6]; 0.003162 µM
  GR value: 0.888 GR
[6]; 0.01 µM
  GR value: 0.831 GR
[6]; 0.03162 µM
  GR value: 0.727 GR
[6]; 0.1 µM
  GR value: 0.611 GR
[6]; 0.3162 µM
  GR value: 0.56 GR
[6]; 1 µM
  GR value: 0.439 GR
[6]; 3.162 µM
  GR value: 0.343 GR
[6]; 10 µM
  GR value: 0.284 GR
[7]; 0.0001 µM
  GR value: 0.982 GR
[7]; 0.0003162 µM
  GR value: 0.93 GR
[7]; 0.001 µM
  GR value: 0.925 GR
[7]; 0.003162 µM
  GR value: 0.954 GR
[7]; 0.01 µM
  GR value: 0.927 GR
[7]; 0.03162 µM
  GR value: 0.914 GR
[7]; 0.1 µM
  GR value: 0.559 GR
[7]; 0.3162 µM
  GR value: 0.0326 GR
[7]; 1 µM
  GR value: -0.182 GR
[8]; 0.0001 µM
  GR value: 1.03 GR
[8]; 0.0003162 µM
  GR value: 0.991 GR
[8]; 0.001 µM
  GR value: 0.943 GR
[8]; 0.003162 µM
  GR value: 1.01 GR
[8]; 0.01 µM
  GR value: 1.07 GR
[8]; 0.03162 µM
  GR value: 1.08 GR
[8]; 0.1 µM
  GR value: 0.915 GR
[8]; 0.3162 µM
  GR value: 0.506 GR
[8]; 1 µM
  GR value: -0.133 GR
[9]; 0.001 µM
  GR value: 0.467 GR
[9]; 0.003162 µM
  GR value: 0.321 GR
[9]; 0.01 µM
  GR value: 0.295 GR
[9]; 0.03162 µM
  GR value: 0.291 GR
[9]; 0.1 µM
  GR value: 0.27 GR
[9]; 0.3162 µM
  GR value: 0.225 GR
[9]; 1 µM
  GR value: 0.238 GR
[9]; 3.162 µM
  GR value: 0.17 GR
[9]; 10 µM
  GR value: -0.0733 GR
[10]; 0.001 µM
  GR value: 0.91 GR
[10]; 0.003162 µM
  GR value: 0.911 GR
[10]; 0.01 µM
  GR value: 0.822 GR
[10]; 0.03162 µM
  GR value: 0.806 GR
[10]; 0.1 µM
  GR value: 0.758 GR
[10]; 0.3162 µM
  GR value: 0.722 GR
[10]; 1 µM
  GR value: 0.728 GR
[10]; 3.162 µM
  GR value: 0.633 GR
[10]; 10 µM
  GR value: 0.562 GR
[11]; 0.001 µM
  increase in dead-cell fraction: -0.0006
[11]; 0.003162 µM
  increase in dead-cell fraction: 0.004
[11]; 0.01 µM
  increase in dead-cell fraction: -0.0023
[11]; 0.03162 µM
  increase in dead-cell fraction: -0.0024
[11]; 0.1 µM
  increase in dead-cell fraction: 0.0008
[11]; 0.3162 µM
  increase in dead-cell fraction: -0.006
[11]; 1 µM
  increase in dead-cell fraction: 0.0054
[11]; 3.162 µM
  increase in dead-cell fraction: 0.0064
[11]; 10 µM
  increase in dead-cell fraction: 0.0095
[12]; 0.0001 µM
  increase in dead-cell fraction: -0.0011
[12]; 0.0003162 µM
  increase in dead-cell fraction: -0.0025
[12]; 0.001 µM
  increase in dead-cell fraction: 0.0061
[12]; 0.003162 µM
  increase in dead-cell fraction: 0.0065
[12]; 0.01 µM
  increase in dead-cell fraction: -0.0032
[12]; 0.03162 µM
  increase in dead-cell fraction: -0.003
[12]; 0.1 µM
  increase in dead-cell fraction: 0.0189
[12]; 0.3162 µM
  increase in dead-cell fraction: 0.0897
[12]; 1 µM
  increase in dead-cell fraction: 0.0752
